As a reminder, the pIC50 is the IC50 on a negative log10 scale, so that one unit is a factor of ten.

pIC50: −log10 of the molar value. *1 amine or outer side, *2 acyl side, *3 side chain or, on linkers, in order; H or OH if unused. Where a SMILES comes first, the peptide text is derived from it. [ ]: non-standard residue; d: D form. Phe(4-(trans-4-COOH-cHex)) = N[C@@H](Cc1ccc([C@H]2CC[C@H](C(=O)O)CC2)cc1)C(=O)O; Phe(4-(cis-4-COOH-cHex)) = N[C@@H](Cc1ccc([C@H]2CC[C@@H](C(=O)O)CC2)cc1)C(=O)O; Phe(4-(4-Ac-piperazinyl)) = CC(=O)N1CCN(c2ccc(C[C@H](N)C(=O)O)cc2)CC1; Trp(βS-Me,4-F) = C[C@@H](c1c[nH]c2cccc(F)c12)[C@H](N)C(=O)O; Bip(4'-COOH) = N[C@@H](Cc1ccc(-c2ccc(C(=O)O)cc2)cc1)C(=O)O; X6 = O=C(O)C12CC(c3ccc(C[C@H](N[*:1])C(=O)[*:2])cc3)(C1)C2; 1Nal(3S-Me) = C[C@@H](c1cccc2ccccc12)[C@H](N)C(=O)O; Ala(indazol-1-yl) = N[C@@H](Cn1ncc2ccccc21)C(=O)O; Ala(indolin-1-yl) = N[C@@H](CN1CCc2ccccc21)C(=O)O; Phe(4-COOH) = N[C@@H](Cc1ccc(C(=O)O)cc1)C(=O)O; Trp(6-F) = N[C@@H](Cc1c[nH]c2cc(F)ccc12)C(=O)O; Trp(7-F) = N[C@@H](Cc1c[nH]c2c(F)cccc12)C(=O)O; Trp(7-Me) = Cc1cccc2c(C[C@H](N)C(=O)O)c[nH]c12; dαMeDab = C[C@](CCN[*:3])(N[*:1])C(=O)[*:2]; Pro(4R-NH2) = N[C@H]1CN[C@H](C(=O)O)C1; hTyr = N[C@@H](CCc1ccc(O)cc1)C(=O)O; hCha = N[C@@H](CCC1CCCCC1)C(=O)O; 4Pal = N[C@@H](Cc1ccncc1)C(=O)O; Cha = N[C@@H](CC1CCCCC1)C(=O)O; dDab = NCC[C@@H](N)C(=O)O; Nle = CCCC[C@H](N)C(=O)O; dNMeA = CN[C@H](C)C(=O)O

In this test the target is T1, Recombinant human IL-1β (Homo sapiens, UniProt P01584).
T1 construct: purchased BioLegend 579404
T1 sequence (P01584 117-269): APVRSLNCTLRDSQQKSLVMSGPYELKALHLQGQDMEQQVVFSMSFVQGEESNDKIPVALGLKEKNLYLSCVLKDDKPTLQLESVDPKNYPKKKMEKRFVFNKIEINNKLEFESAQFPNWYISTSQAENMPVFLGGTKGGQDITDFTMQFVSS
Briefly: IL-6 assay in MRC5 cells: inhibition of IL-1β induced IL-6 secretion (AlphaLISA). The class given is cell-based. Particulars: inhibition of IL-1β induced IL-6 secretion in MRC5 cells; read-out: MRC5 IC50. In outline: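 IL-1β at 2×EC80 in seeding medium (EMEM, 0.025% BSA) preincubated 1 h at ambient temperature with compound, then 3000 MRC5 cells/well added and incubated overnight at 37 °C, 5% CO2. IL-6 in conditioned medium quantified by AlphaLISA; IC50 from 4-parameter logistic fit.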
(In general: Alpha assays give light when donor and acceptor beads are brought close together.)
Consider `CC(C)C[C@@H]1NC(=O)[C@H](CCCCN)NC(=O)[C@H](Cc2ccc(-c3ccc(C(=O)O)cc3)cc2)NC(=O)CNC(=O)[C@@H](C)N(C)C(=O)[C@H](CC(=O)O)NC(=O)[C@H]([C@@H](C)c2c[nH]c3cccc(F)c23)NC(=O)[C@@H]2C[C@@H](N)CN2C(=O)CNC(=O)[C@H](Cc2ccc(C(=O)O)cc2)NC(=O)[C@H](Cc2c[nH]c3c(F)cccc23)NC(=O)[C@H](Cc2ccc(-c3ccc(C(=O)O)cc3)cc2)NC(=O)[C@H](CCc2ccc(O)cc2)NC(=O)[C@@H](C)NC1=O` [Example 185] (cyclo([Bip(4'-COOH)][Trp(7-F)][Phe(4-COOH)]G[Pro(4R-NH2)][Trp(βS-Me,4-F)]D[dNMeA]G[Bip(4'-COOH)]KL[dA][hTyr])), for which the pIC50 is 10.62.
In the case of `Cc1cccc2c(C[C@@H]3NC(=O)[C@H](Cc4ccc(-c5ccc(C(=O)O)cc5)cc4)NC(=O)[C@H](CCc4ccc(O)cc4)NC(=O)[C@@H](C)NC(=O)[C@H](CC(C)C)NC(=O)[C@H](CCCCN)NC(=O)[C@H](Cc4ccc(-c5ccc(C(=O)O)cc5)cc4)NC(=O)CNC(=O)[C@@H](C)N(C)C(=O)[C@H](CC(=O)O)NC(=O)[C@H]([C@@H](C)c4c[nH]c5cccc(F)c45)NC(=O)[C@@H]4C[C@@H](N)CN4C(=O)CNC(=O)[C@H](Cc4ccc(C(=O)O)cc4)NC3=O)c[nH]c12` [Example 186] (cyclo([Bip(4'-COOH)][Trp(7-Me)][Phe(4-COOH)]G[Pro(4R-NH2)][Trp(βS-Me,4-F)]D[dNMeA]G[Bip(4'-COOH)]KL[dA][hTyr])), the pIC50 is 10.42.
`CC(=O)NCCCC[C@H]1NC(=O)[C@H](CC(C)C)NC(=O)[C@H](CCCCN)NC(=O)[C@H](Cc2ccc(-c3ccc(C(=O)O)cc3)cc2)NC(=O)CNC(=O)[C@@H](C)N(C)C(=O)[C@H](CC(=O)O)NC(=O)[C@H]([C@@H](C)c2c[nH]c3cccc(F)c23)NC(=O)[C@@H]2C[C@@H](N)CN2C(=O)CNC(=O)[C@H](Cc2ccc(C(=O)O)cc2)NC(=O)[C@H](Cc2c[nH]c3ccccc23)NC(=O)[C@H](Cc2ccc(-c3ccc(C(=O)O)cc3)cc2)NC(=O)[C@H](CCc2ccc(O)cc2)NC1=O` [Example 187] (cyclo([Bip(4'-COOH)]W[Phe(4-COOH)]G[Pro(4R-NH2)][Trp(βS-Me,4-F)]D[dNMeA]G[Bip(4'-COOH)]KL[dK](Ac)[hTyr])): the pIC50 was 11.05.
`C[C@@H]1C(=O)NCC(=O)N[C@@H](Cc2ccc(-c3ccc(C(=O)O)cc3)cc2)C(=O)N[C@@H](Cn2ncc3ccccc32)C(=O)NCC(=O)N[C@H](CCN)C(=O)N[C@@H](CCC2CCCCC2)C(=O)N[C@@H](Cc2ccc(C34CC(C(=O)O)(C3)C4)cc2)C(=O)N[C@@H](Cc2c[nH]c3ccccc23)C(=O)N[C@@H](Cc2ccc(C(=O)O)cc2)C(=O)NCC(=O)N2C[C@H](N)C[C@H]2C(=O)N[C@@H]([C@@H](C)c2cccc3ccccc23)C(=O)N[C@@H](CC(=O)O)C(=O)N1C` [Example 188] (cyclo([X6]W[Phe(4-COOH)]G[Pro(4R-NH2)][1Nal(3S-Me)]D[dNMeA]G[Bip(4'-COOH)][Ala(indazol-1-yl)]G[dDab][hCha])): the pIC50 is 10.80.
The figure for `C[C@@H]1C(=O)NCC(=O)N[C@@H](Cc2ccc(-c3ccc(C(=O)O)cc3)cc2)C(=O)N[C@@H](CC2CCCCC2)C(=O)NCC(=O)N[C@H](CCN)C(=O)N[C@@H](CCC2CCCCC2)C(=O)N[C@@H](Cc2ccc(C34CC(C(=O)O)(C3)C4)cc2)C(=O)N[C@@H](Cc2c[nH]c3ccccc23)C(=O)N[C@@H](Cc2ccc(C(=O)O)cc2)C(=O)NCC(=O)N2C[C@H](N)C[C@H]2C(=O)N[C@@H]([C@@H](C)c2cccc3ccccc23)C(=O)N[C@@H](CC(=O)O)C(=O)N1C` [Example 189] (cyclo([X6]W[Phe(4-COOH)]G[Pro(4R-NH2)][1Nal(3S-Me)]D[dNMeA]G[Bip(4'-COOH)][Cha]G[dDab][hCha])) is 10.72.
In the case of `C[C@@H]1C(=O)NCC(=O)N[C@@H](Cc2ccc(-c3ccc(C(=O)O)cc3)cc2)C(=O)N[C@@H](CC2CCCCC2)C(=O)NCC(=O)N[C@H](CCN)C(=O)N[C@@H](CCc2ccc(O)cc2)C(=O)N[C@@H](Cc2ccc(C34CC(C(=O)O)(C3)C4)cc2)C(=O)N[C@@H](Cc2c[nH]c3ccccc23)C(=O)N[C@@H](Cc2ccc(C(=O)O)cc2)C(=O)NCC(=O)N2C[C@H](N)C[C@H]2C(=O)N[C@@H]([C@@H](C)c2cccc3ccccc23)C(=O)N[C@@H](CC(=O)O)C(=O)N1C` [Example 190] (cyclo([X6]W[Phe(4-COOH)]G[Pro(4R-NH2)][1Nal(3S-Me)]D[dNMeA]G[Bip(4'-COOH)][Cha]G[dDab][hTyr])), the pIC50 was 10.74.
With `C[C@@H]1C(=O)NCC(=O)N[C@@H](Cc2ccc(-c3ccc(C(=O)O)cc3)cc2)C(=O)N[C@@H](Cc2ccncc2)C(=O)NCC(=O)N[C@H](CCN)C(=O)N[C@@H](CCC2CCCCC2)C(=O)N[C@@H](Cc2ccc([C@H]3CC[C@@H](C(=O)O)CC3)cc2)C(=O)N[C@@H](Cc2c[nH]c3ccccc23)C(=O)N[C@@H](Cc2ccc(C(=O)O)cc2)C(=O)NCC(=O)N2C[C@H](N)C[C@H]2C(=O)N[C@@H]([C@@H](C)c2cccc3ccccc23)C(=O)N[C@@H](CC(=O)O)C(=O)N1C` [Example 191] (cyclo([Phe(4-(cis-4-COOH-cHex))]W[Phe(4-COOH)]G[Pro(4R-NH2)][1Nal(3S-Me)]D[dNMeA]G[Bip(4'-COOH)][4Pal]G[dDab][hCha])), the pIC50 is 10.72.
Turning to `C[C@@H]1C(=O)NCC(=O)N[C@@H](Cc2ccc(-c3ccc(C(=O)O)cc3)cc2)C(=O)N[C@@H](Cc2ccncc2)C(=O)NCC(=O)N[C@H](CCN)C(=O)N[C@@H](CCC2CCCCC2)C(=O)N[C@@H](Cc2ccc([C@H]3CC[C@H](C(=O)O)CC3)cc2)C(=O)N[C@@H](Cc2c[nH]c3cc(F)ccc23)C(=O)N[C@@H](Cc2ccc(C(=O)O)cc2)C(=O)NCC(=O)N2C[C@H](N)C[C@H]2C(=O)N[C@@H]([C@@H](C)c2cccc3ccccc23)C(=O)N[C@@H](CC(=O)O)C(=O)N1C` [Example 192] (cyclo([Phe(4-(trans-4-COOH-cHex))][Trp(6-F)][Phe(4-COOH)]G[Pro(4R-NH2)][1Nal(3S-Me)]D[dNMeA]G[Bip(4'-COOH)][4Pal]G[dDab][hCha])), the pIC50 was 10.82.
`C[C@@H]1C(=O)NCC(=O)N[C@@H](Cc2ccc(-c3ccc(C(=O)O)cc3)cc2)C(=O)N[C@@H](Cc2ccncc2)C(=O)N[C@@H](CO)C(=O)N[C@H](CCN)C(=O)N[C@@H](CCC2CCCCC2)C(=O)N[C@@H](Cc2ccc([C@H]3CC[C@H](C(=O)O)CC3)cc2)C(=O)N[C@@H](Cc2c[nH]c3cc(F)ccc23)C(=O)N[C@@H](Cc2ccc(C(=O)O)cc2)C(=O)NCC(=O)N2C[C@H](N)C[C@H]2C(=O)N[C@@H]([C@@H](C)c2cccc3ccccc23)C(=O)N[C@@H](CC(=O)O)C(=O)N1C` [Example 193] (cyclo([Phe(4-(trans-4-COOH-cHex))][Trp(6-F)][Phe(4-COOH)]G[Pro(4R-NH2)][1Nal(3S-Me)]D[dNMeA]G[Bip(4'-COOH)][4Pal]S[dDab][hCha])): the negative-log IC50 (pIC50) is 10.92.
Next, `C[C@@H]1C(=O)NCC(=O)N[C@@H](Cc2ccc(-c3ccc(C(=O)O)cc3)cc2)C(=O)N[C@@H](Cc2ccncc2)C(=O)NCC(=O)N[C@H](CCN)C(=O)N[C@@H](CCC2CCCCC2)C(=O)N[C@@H](Cc2ccc([C@H]3CC[C@H](C(=O)O)CC3)cc2)C(=O)N[C@@H](Cc2c[nH]c3ccccc23)C(=O)N[C@@H](Cc2ccc(C(=O)O)cc2)C(=O)NCC(=O)N2C[C@H](N)C[C@H]2C(=O)N[C@@H]([C@@H](C)c2cccc3ccccc23)C(=O)N[C@@H](CC(=O)O)C(=O)N1C` [Example 196] (cyclo([Phe(4-(trans-4-COOH-cHex))]W[Phe(4-COOH)]G[Pro(4R-NH2)][1Nal(3S-Me)]D[dNMeA]G[Bip(4'-COOH)][4Pal]G[dDab][hCha])): 10.52.
The figure for `CCCC[C@@H]1NC(=O)[C@@H](CCN)NC(=O)CNC(=O)[C@H](Cc2ccncc2)NC(=O)[C@H](Cc2ccc(-c3ccc(C(=O)O)cc3)cc2)NC(=O)CNC(=O)[C@@H](C)N(C)C(=O)[C@H](CC(=O)O)NC(=O)[C@H]([C@@H](C)c2cccc3ccccc23)NC(=O)[C@@H]2C[C@@H](N)CN2C(=O)CNC(=O)[C@H](Cc2ccc(C(=O)O)cc2)NC(=O)[C@H](Cc2c[nH]c3ccccc23)NC(=O)[C@H](Cc2ccc([C@H]3CC[C@H](C(=O)O)CC3)cc2)NC1=O` [Example 197] (cyclo([Phe(4-(trans-4-COOH-cHex))]W[Phe(4-COOH)]G[Pro(4R-NH2)][1Nal(3S-Me)]D[dNMeA]G[Bip(4'-COOH)][4Pal]G[dDab][Nle])) is 10.62; for `CC(=O)N1CCN(c2ccc(C[C@@H]3NC(=O)[C@H](CCc4ccc(O)cc4)NC(=O)[C@@H](CCN)NC(=O)CNC(=O)[C@H](CN4CCc5ccccc54)NC(=O)[C@H](Cc4ccc(-c5ccc(C(=O)O)cc5)cc4)NC(=O)CNC(=O)[C@@H](C)N(C)C(=O)[C@H](CC(=O)O)NC(=O)[C@H]([C@@H](C)c4cccc5ccccc45)NC(=O)[C@@H]4C[C@@H](N)CN4C(=O)CNC(=O)[C@H](Cc4ccc(C(=O)O)cc4)NC(=O)[C@H](Cc4c[nH]c5ccccc45)NC3=O)cc2)CC1` [Example 198] (cyclo([Phe(4-(4-Ac-piperazinyl))]W[Phe(4-COOH)]G[Pro(4R-NH2)][1Nal(3S-Me)]D[dNMeA]G[Bip(4'-COOH)][Ala(indolin-1-yl)]G[dDab][hTyr])) it is 10.68; for `CC(=O)N1CCN(c2ccc(C[C@@H]3NC(=O)[C@H](CCC4CCCCC4)NC(=O)[C@@](C)(CCN)NC(=O)CNC(=O)[C@H](Cc4ccncc4)NC(=O)[C@H](Cc4ccc(-c5ccc(C(=O)O)cc5)cc4)NC(=O)CNC(=O)[C@@H](C)N(C)C(=O)[C@H](CC(=O)O)NC(=O)[C@H]([C@@H](C)c4cccc5ccccc45)NC(=O)[C@@H]4C[C@@H](N)CN4C(=O)CNC(=O)[C@H](Cc4ccc(C(=O)O)cc4)NC(=O)[C@H](Cc4c[nH]c5ccccc45)NC3=O)cc2)CC1` [Example 199] (cyclo([Phe(4-(4-Ac-piperazinyl))]W[Phe(4-COOH)]G[Pro(4R-NH2)][1Nal(3S-Me)]D[dNMeA]G[Bip(4'-COOH)][4Pal]G[dαMeDab][hCha])) it is 10.62.

The values are drawn from patent US20230406885A1, “CYCLIC PEPTIDES FOR TRAPPING INTERLEUKIN-1 BETA” (MERCK SHARP & DOHME LLC, priority 2022, published 2023).
